The subject of series [1] is passive cutaneous anaphylaxis. Put plainly: Passive cutaneous anaphylaxis tests (PCA) on rats. Type of series: in vivo, SLC-strain Wistar rat. The note with it: intravenous, rat PCA; for inhibition in vivo at 3 mg/kg / inhibition in vivo at 0.3 mg/kg: read-out: Inhibition rate. The protocol:
To test the effectiveness of compounds of this invention for treatment of allergic asthma, evaluation of antiallergy effect was carried out by passive cutaneous anaphylaxis tests (PCA) on rats.
Rats (SLC-strain Wistar rat) were immunized with egg albumin which had been recrystallized five times and Bodetella pertussis vaccine, and, after 13 days, serum was taken from these rats.
This serum was diluted to 1/128 and intradermally injected into the back of rats. 48 hours thereafter, the compounds of the invention as set forth in the following table in the form of salts thereof with tris (hydroxymethyl)methyl ammonium dissolved in saline in the indicated quantities as the salts were administered intravenously, and 5 minutes thereafter, saline in which egg albumin and Evans Blue were dissolved was challenged intravenously. After 30 minutes, the animals were killed and the skins were removed and the quantity of the Evans Blue which has leaked as a result of the antigen antibody reaction was extracted through the use of Na2 SO4 solution and acetone, colorimetry being carried out at 620 mμ.

For the next series, the system named is allergic asthma. Put plainly: Classification in view of activity on treatment of allergic asthma. The conditions noted are these: first group most preferable, second more preferable, third preferable. It is filed as in vivo.
Series [2] in a line: 50% lethal dose (LD50), i.v., mouse. The note with it: in vivo, iv.
[3] abbreviates: dose 3 mg/kg (quantity as the tris (hydroxymethyl) methyl ammonium salt).
[4] abbreviates: dose 0.3 mg/kg (quantity as the tris (hydroxymethyl) methyl ammonium salt).

The record followed here is US4086349A, “Quinolopyran-4-one-2-carboxylic acid derivatives and salts thereof as novel compounds and as medicines for treatment of allergic asthma” (Mitsubishi Yuka Pharmaceutical Co., Ltd., priority 1975, dated 1978).

As for `COc1ccc2c(c1)nc(O)c1c(=O)cc(C(=O)O)oc12` [Compound 15, 8-methoxy-5-hydroxy-quinolo[4,3-b]-pyran-4-one-2-carboxylic acid], the inhibition in vivo at 3 mg/kg in series [1] (setting [3]) came to 90%.
For the compound `Cc1ccc2nc(O)c3c(=O)cc(C(=O)O)oc3c2c1` [Compound 2, 9-methyl-5-hydroxy-quinolo [4,3-b]-pyran-4-one-2-carboxylic acid], the inhibition in vivo at 0.3 mg/kg in series [1] (setting [4]) was found to be 63%. In addition, in series [1] (setting [3]), the inhibition in vivo at 3 mg/kg was 100%. Also, in the series with allergic asthma, the “preference group in view of activity on treatment of allergic asthma” value (“preference group in view of activity” below) was “most preferable”.
In the case of `COc1cc2nc(O)c3c(=O)cc(C(=O)O)oc3c2cc1OC` [Compound 16, 8,9-dimethoxy-5-hydroxy-quinolo[4,3-b]-pyran-4-one-2-carboxylic acid], in series [1] (setting [3]), the inhibition in vivo at 3 mg/kg is 90%.
As for `COc1cccc2c1nc(O)c1c(=O)cc(C(=O)O)oc12` [Compound 5, 7-methoxy-5-hydroxy-quinolo[4,3-b]-pyran-4-one-2-carboxylic acid], the inhibition in vivo at 0.3 mg/kg in series [1] (setting [4]) is 37%. The inhibition in vivo at 3 mg/kg in series [1] (setting [3]) turned out to be 98%.
Turning to `O=C(O)c1cc(=O)c2c(O)nc3ccc(F)cc3c2o1` [Compound 14, 9-fluoro-5-hydroxy-quinolo[4,3-b]-pyran-4-one-2-carboxylic acid], the inhibition in vivo at 3 mg/kg in series [1] (setting [3]) turned out to be 90%.
For `O=C(O)c1cc(=O)c2c(O)nc3ccc(Cl)cc3c2o1` [Compound 7, 9-chloro-5-hydroxy-quinolo[4,3-b]-pyran-4-one-2-carboxylic acid], the inhibition in vivo at 0.3 mg/kg in series [1] (setting [4]) amounted to 67%. Moreover, in series [1] (setting [3]), the inhibition in vivo at 3 mg/kg was determined as 100%. Moreover, the “preference group in view of activity” value in the series with allergic asthma was “most preferable”.
As for `CCc1ccc2nc(O)c3c(=O)cc(C(=O)O)oc3c2c1` [Compound 17, 9-ethyl-5-hydroxy-quinolo[4,3-b]-pyran-4-one-2-carboxylic acid], the inhibition in vivo at 3 mg/kg in series [1] (setting [3]) is 90%.
Regarding `O=C(O)c1cc(=O)c2c(O)nc3ccc(-c4ccccc4)cc3c2o1` [Compound 10, 9-phenyl-5-hydroxy-quinolo[4,3-b]-pyran-4-one-2-carboxylic acid], the inhibition in vivo at 3 mg/kg in series [1] (setting [3]) was determined as 90%. Besides, the “preference group in view of activity” value in the series on allergic asthma is listed as “preferable”.
As for `O=C(O)c1cc(=O)c2c(O)nc3ccc(OCc4ccccc4)cc3c2o1` [Compound 8, 9-benzyloxy-5-hydroxy-quinolo[4,3-b]-pyran-4-one-2-carboxylic acid], the inhibition in vivo at 0.3 mg/kg in series [1] (setting [4]) is 34%. Besides, in series [1] (setting [3]), the inhibition in vivo at 3 mg/kg came to 96%. Moreover, the “preference group in view of activity” value with allergic asthma is on record as “more preferable”.
On to `CCOC(=O)c1ccc2nc(O)c3c(=O)cc(C(=O)O)oc3c2c1` [Compound 9, 9-ethoxycarbonyl-5-hydroxy-quinolo[4,3-b]-pyran-4-one-2-carboxylic acid], for which the inhibition in vivo at 0.3 mg/kg in series [1] (setting [4]) amounted to 39%. The inhibition in vivo at 3 mg/kg in series [1] (setting [3]) is 100%. Besides, in the series on allergic asthma, the “preference group in view of activity” value is listed as “more preferable”.
`Cc1c(Cl)ccc2c1nc(O)c1c(=O)cc(C(=O)O)oc12` [Compound 11, 7-methyl-8-chloro-5-hydroxy-quinolo[4,3-b]-pyran-4-one-2-carboxylic acid]: the Inhibition rate amounted to 26% in series [1] (setting [4]) and 87% in series [1] (setting [3]). In the series with allergic asthma, the “preference group in view of activity” value is “more preferable”.
As for `Cc1cccc2c1nc(O)c1c(=O)cc(C(=O)O)oc12` [Compound 3, 7-methyl-5-hydroxy-quinolo [4,3-b]-pyran-4-one-2-carboxylic acid], the inhibition in vivo at 0.3 mg/kg in series [1] (setting [4]) came to 27%. Also, the inhibition in vivo at 3 mg/kg in series [1] (setting [3]) worked out at 100%.
Turning to `Cc1ccc2c(nc(O)c3c(=O)cc(C(=O)O)oc32)c1C` [Compound 1, 7,8-dimethyl-5-hydroxy-quinolo [4,3-b]-pyran-4-one-2-carboxylic acid], the inhibition in vivo at 0.3 mg/kg in series [1] (setting [4]) was determined as 98%. Further, the inhibition in vivo at 3 mg/kg in series [1] (setting [3]) worked out at 100%. Moreover, in series [2], the LD50 stood at 560 mg/kg and the selectivity ratio worked out at 20000. Also, in the series on allergic asthma, the “preference group in view of activity” value is reported as “most preferable”.
Regarding `O=C(O)c1cc(=O)c2c(O)nc3ccc(Br)cc3c2o1` [Compound 13, 9-bromo-5-hydroxy-quinolo[4,3-b]-pyran-4-one-2-carboxylic acid], in series [1] (setting [3]), the inhibition in vivo at 3 mg/kg worked out at 90%.
For `CCCCc1ccc2nc(O)c3c(=O)cc(C(=O)O)oc3c2c1` [Compound 6, 9-n-butyl-5-hydroxy-quinolo[4,3-b]-pyran-4-one-2-carboxylic acid], in series [1] (setting [4]), the inhibition in vivo at 0.3 mg/kg was 26%. Also, the inhibition in vivo at 3 mg/kg in series [1] (setting [3]) worked out at 94%.
`COc1ccc2nc(O)c3c(=O)cc(C(=O)O)oc3c2c1` [Compound 4, 9-methoxy-5-hydroxy-quinolo[4,3-b]-pyran-4-one-2-carboxylic acid]: the inhibition in vivo at 0.3 mg/kg in series [1] (setting [4]) stood at 38%. In addition, in series [1] (setting [3]), the inhibition in vivo at 3 mg/kg amounted to 98%.
Turning to `Cc1cc(C)c2nc(O)c3c(=O)cc(C(=O)O)oc3c2c1` [Compound 12, 7,9-dimethyl-5-hydroxy-quinolo[4,3-b]-pyran-4-one-2-carboxylic acid], the inhibition in vivo at 3 mg/kg in series [1] (setting [3]) was determined as 90%.

For orientation: LD50 means the dose at which mortality reaches 50%. A low value points to a more toxic substance.
